Results: patent publication US20150010630A1, “FUNCTIONALIZATION OF BIOMATERIALS TO CONTROL REGENERATION AND INFLAMMATION RESPONSES” (TRUSTEES OF TUFTS COLLEGE, priority 2011, published 2015)
Where two headings read alike, the source gives them in different places.

Tests used:
[1] = test system: THP-1 monocytes; test: M1/M2 macrophage marker expression in THP-1 monocytes cultured on silk films functionalized with macrophage-skewing agent; format: cell-based, human
[2] = test system: THP1 macrophages; test: TNF-α release (ELISA) from THP1 macrophages seeded on SP1 particles, LPS plus drug; format: cell-based, human
Procedure: To assess inflammatory response, a large screen of cytokines and chemokines expressed and produced by THP1 differentiated cells and primary Mφs and DCs were analyzed. Their production and release into the media environment were evaluated using an ELISA sandwich technique. […] TNF-α cytokine release was selected in the experiments described herein because it is the common proinflammatory cytokine produced by Mφs as well as DCs. However, other inflammation-associated cytokines can also be measured.

[3] = test system: THP1 macrophages; test: RT-PCR gene expression (TNF-α, TGF-β, IL-10) of THP1 macrophages on SP1 particles
[4] = test system: primary dendritic cells; test: TNF-α release (ELISA) from primary dendritic cells on SP0.5 particles; format: cell-based, human; settings: various concentrations, both time points
[5] = test system: primary macrophages; test: TNF-α release (ELISA) from primary macrophages on SP0.5 particles; format: cell-based, human; settings: dexamethasone ~25 to ~1.5625 μg/ml both time points; simvastatin about 250 to about 31.25 μg/ml at 1 day; nicotine either time point
[6] = test system: primary dendritic cells; test: RT-PCR gene expression (IL-1β, IL-1RA, IL-8) of primary dendritic cells on SP0.5 particles; format: cell-based, human
[7] = test system: THP1 macrophages
Procedure: The number of cells was determined, e.g., by counting the cells at the beginning of the experiment and by using the alamar blue method after the seeding. On the day the cells were seeded at the appropriate number, phorbo112-myristate 13-acetate (PMA) was added to the media at a final concentration of about 100 ng/ml to differentiate the THP-1 monocytes into THP-1 macrophages.

[8] = test system: primary macrophages; test: RT-PCR gene expression (TNF-α, IL-1RA, IL-10) of primary macrophages on SP0.5 particles; format: cell-based, human; settings: 1 day
[9] = Release of INF-γ from INF-γ embedded silk films (ELISA); format: physicochemical
Procedure: An ELISA was run to show the release rate of INF-γ from the silk films. The films were made from a silk fibroin solution of about 10 μg/m and 0.2 ml used per film (for a total loading of about 2 μg INF-γ). Within one hour a large amount of INF-γ is released but as a percentage of the total loading it is small and by 4 days more INF-γ is released showing that there is a continued or constant release of INF-γ. While the levels of INF-γ release are low, they are physiologically relevant.
FIG. 23 is a line graph showing the release rate of INF-γ from the silk films. The silk films were made from a silk solution at a concentration of about 10 μg/m and about 0.2 ml of the silk solution was used per film (with a loading of about 2 μg INF-γ). As shown in the table of FIG. 23, within one hour an amount of about […] INF-γ was released, which is about 0.02% of the total loading. […] While the levels of INF-γ release appeared to be low, the level is physiologically relevant.

[10] = about 10 μg/ml INF-γ in silk films

INF-γ: interferon-gamma loaded or embedded in silk films
CCL-18 (M2 macrophage marker) [1, 10]: upregulated | CD206 (M2 macrophage marker) relative to control [1, 10]: strongly downregulated | markers of M1 macrophage (CCL3 and CCR7) ([1]; about 10 μg/ml INF-γ loaded or embedded in silk films): up-regulated

CCC(C)(C)C(=O)O[C@H]1C[C@@H](C)C=C2C=C[C@H](C)[C@H](CC[C@@H]3C[C@@H](O)CC(=O)O3)[C@H]21 [simvastatin]
TNF-α release ([2]; simvastatin ~31.5 μg/ml and less): about 0.07 pg/ml

C[C@@H]1C[C@H]2[C@@H]3CCC4=CC(=O)C=C[C@]4(C)[C@@]3(F)[C@@H](O)C[C@]2(C)[C@@]1(O)C(=O)CO [dexamethasone]
IL-10 fold change in expression (relative to positive control) ([3]; 1 day, dexamethasone about 12.5 μg/ml): above 1 fold

CN1CCCC1c1cccnc1 (centres unmarked) [nicotine]
IL-10 gene expression ([3]; 1 day, dexamethasone vs media control, simvastatin vs positive control, nicotine vs controls): unregulated | TGF-β gene expression ([3]; 3 days, dexamethasone all concentrations except ~25 μg/ml, nicotine compared to same concentrations at 1 day): downregulated | TNF-α gene expression ([3]; 3 days, dexamethasone vs LPS control, nicotine vs negative control): higher than the negative control | IL-10 gene expression ([3]; 3 days, nicotine compared to same concentrations at 1 day): downregulated | TNF-α release compared to LPS control [4]: the same as observed with macrophages | TNF-α release compared to positive control (LPS), high concentrations ([2]; dexamethasone ~100 and ~50 μg/ml, simvastatin higher concentration, nicotine above 750 μg/ml, both time points): more TNF-α was released than the positive control | TNF-α release compared to LPS control [5]: no significant decrease | gene expression profile (anti-inflammatory or not) ([6]; 1 day, dexamethasone various concentrations, simvastatin ~62.5 μg/ml, nicotine about 46.87 to about 187.5 μg/ml): no anti-inflammatory profile | gene expression profile (anti-inflammatory or not) ([6]; 5 days): no anti-inflammatory profile | cytotoxicity (in words) ([7]; dexamethasone ~100 and ~50 μg/ml, simvastatin 250 μg/ml, nicotine 3 mg/ml, both time points): cytotoxic | cytotoxicity (in words) ([7]; nicotine ~1.5 mg/ml, 3 days): cytotoxic | effect on cell number versus positive and negative controls ([7]; non-cytotoxic nicotine concentrations): proliferative effect | TNF-α gene expression ([8]; dexamethasone, simvastatin 125 to 31.25 μg/ml, nicotine 187.5 and 93.75 μg/ml): downregulated | IL-10 gene expression ([8]; dexamethasone, simvastatin, nicotine about 750 to about 275 μg/ml): high | IL-1RA gene expression ([8]; simvastatin, nicotine about 750 to about 275 μg/ml): high

B1: INF-γ: interferon-gamma loaded or embedded in silk films (protein, UniProt P01579 24-161, looked up)
Interferon gamma: QDPYVKEAENLKKYFNAGHSDVADNGTLFLGILKNWKEESDRKIMQSQIVSFYFKLFKNFKDDQSIQKSVETIKEDMNVKFFNSNKKKRDDFEKLTNYSVTDLNVQRKAIHELIQVMAELSPAAKTGKRKRSQMLFRG
continued INF-γ release ([9]; by day 4): More INF-γ was released | INF-γ released as share of the total loading ([9]; within one hour): about 0.02% | amount of INF-γ released from silk film ([9]; within one hour, loading about 2 μg INF-γ per film): about 400 μg/ml
